# In article PMC9492542, “Brain-restricted mTOR inhibition with binary pharmacology” (Nature, 2022):
# Read-outs that look alike come from different tables or passages of the source.
# How the values were obtained:
# [1] = biological target: 476 purified kinases (Homo sapiens, UniProt Q9NY57)
# Description: (§1) In vitro kinase inhibition assays were performed by SelectScreen Services (Thermo Fisher Scientific) using either Z’-LYTE (mTOR, Src, Csk, EGFR, HER2 and HGK), Adapta (LRRK2) or LanthaScreen (DDR2) assay format (standardized protocols can be accessed on the SelectScreen website: https://www.thermofisher.com/us/en/home/products-and-services/services/custom-services/screening-and-profiling-services/selectscreen-profiling-service/selectscreen-kinase-profiling-service.html. When indicated, recombinant FKBP12 protein was added to the assay mixture to a final concentration of 10 µM.
# [2] = biological target: 476 purified kinases (Homo sapiens, UniProt P06241); conditions: ZLYTE
# Description: as §1
# [3] = biological target: 476 purified kinases (Homo sapiens, UniProt Q8TF76); conditions: Adapta
# Description: as §1
# [4] = biological target: 476 purified kinases (Homo sapiens, UniProt Q8IVH8)
# Description: as §1
# [5] = biological target: 476 purified kinases (Homo sapiens, UniProt Q13705)
# Sequence of 476 purified kinases (Homo sapiens, UniProt Q13705) (Q13705 19-512): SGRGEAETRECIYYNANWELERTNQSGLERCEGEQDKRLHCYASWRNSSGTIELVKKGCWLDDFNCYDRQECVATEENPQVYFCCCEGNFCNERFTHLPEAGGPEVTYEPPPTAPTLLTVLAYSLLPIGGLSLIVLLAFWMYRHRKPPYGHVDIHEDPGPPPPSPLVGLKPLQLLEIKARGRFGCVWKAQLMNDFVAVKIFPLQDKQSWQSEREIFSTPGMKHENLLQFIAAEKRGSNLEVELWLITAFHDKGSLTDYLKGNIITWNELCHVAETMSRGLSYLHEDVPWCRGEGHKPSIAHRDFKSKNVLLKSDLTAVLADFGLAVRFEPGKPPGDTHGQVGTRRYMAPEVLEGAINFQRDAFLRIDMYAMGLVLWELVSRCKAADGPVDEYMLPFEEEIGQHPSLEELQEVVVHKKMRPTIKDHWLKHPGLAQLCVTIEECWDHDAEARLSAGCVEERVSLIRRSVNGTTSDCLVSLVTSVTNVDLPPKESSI
# Description: as §1
# [6] = biological target: 476 purified kinases (Homo sapiens, UniProt Q9UEW8)
# Description: as §1
# [7] = biological target: 476 purified kinases (Homo sapiens, UniProt P17612); conditions: ZLYTE
# Description: as §1
# [8] = biological target: 476 purified kinases (Homo sapiens, UniProt P37173)
# Sequence of 476 purified kinases (Homo sapiens, UniProt P37173) (P37173 23-567): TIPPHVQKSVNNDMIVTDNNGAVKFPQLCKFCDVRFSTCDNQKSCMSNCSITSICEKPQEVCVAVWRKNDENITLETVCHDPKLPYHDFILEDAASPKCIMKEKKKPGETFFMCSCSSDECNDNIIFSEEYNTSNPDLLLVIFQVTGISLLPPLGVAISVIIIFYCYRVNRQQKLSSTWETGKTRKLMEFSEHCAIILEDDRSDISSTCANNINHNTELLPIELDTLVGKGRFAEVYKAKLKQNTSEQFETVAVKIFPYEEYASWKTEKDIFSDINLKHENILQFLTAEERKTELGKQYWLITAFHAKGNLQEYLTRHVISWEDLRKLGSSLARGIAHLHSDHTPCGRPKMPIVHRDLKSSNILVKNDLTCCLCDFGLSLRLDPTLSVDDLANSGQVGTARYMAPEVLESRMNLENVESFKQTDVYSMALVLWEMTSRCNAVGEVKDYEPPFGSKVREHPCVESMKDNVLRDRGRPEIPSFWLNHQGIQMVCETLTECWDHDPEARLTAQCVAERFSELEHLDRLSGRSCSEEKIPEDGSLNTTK
# Description: as §1
# [9] = biological target: 476 purified kinases (Homo sapiens, UniProt Q13554); conditions: ZLYTE
# Sequence of 476 purified kinases (Homo sapiens, UniProt Q13554) (Q13554 whole entry): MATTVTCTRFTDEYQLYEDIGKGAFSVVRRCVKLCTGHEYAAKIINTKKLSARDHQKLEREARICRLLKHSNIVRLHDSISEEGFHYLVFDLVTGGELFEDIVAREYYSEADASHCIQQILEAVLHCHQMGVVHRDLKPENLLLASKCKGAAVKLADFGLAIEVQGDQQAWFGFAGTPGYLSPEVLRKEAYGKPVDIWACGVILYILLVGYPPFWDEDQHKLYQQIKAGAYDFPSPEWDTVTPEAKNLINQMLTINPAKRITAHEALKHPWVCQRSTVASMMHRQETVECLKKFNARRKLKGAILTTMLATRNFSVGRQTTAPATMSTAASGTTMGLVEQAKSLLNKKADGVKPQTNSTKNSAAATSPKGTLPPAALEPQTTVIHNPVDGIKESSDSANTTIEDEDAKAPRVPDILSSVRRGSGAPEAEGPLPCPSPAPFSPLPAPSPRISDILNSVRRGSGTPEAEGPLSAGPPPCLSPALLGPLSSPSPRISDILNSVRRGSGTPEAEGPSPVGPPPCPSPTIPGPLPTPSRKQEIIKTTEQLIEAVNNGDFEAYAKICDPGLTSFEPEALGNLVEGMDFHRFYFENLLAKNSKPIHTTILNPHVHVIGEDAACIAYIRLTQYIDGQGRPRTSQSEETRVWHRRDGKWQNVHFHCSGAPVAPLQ
# Description: as §1
# [10] = biological target: 476 purified kinases (Homo sapiens, UniProt Q8N4C8); conditions: ZLYTE
# Description: as §1
# [11] = biological target: 476 purified kinases (Homo sapiens, UniProt P78368); conditions: ZLYTE
# Description: as §1
# [12] = biological target: 476 purified kinases (Homo sapiens, UniProt Q9UKI8)
# Description: as §1
# [13] = biological target: 476 purified kinases (Homo sapiens, UniProt Q86UE8)
# Description: as §1
# [14] = biological target: 476 purified kinases (Homo sapiens, UniProt Q9UQM7); conditions: ZLYTE
# Sequence of 476 purified kinases (Homo sapiens, UniProt Q9UQM7) (Q9UQM7 whole entry): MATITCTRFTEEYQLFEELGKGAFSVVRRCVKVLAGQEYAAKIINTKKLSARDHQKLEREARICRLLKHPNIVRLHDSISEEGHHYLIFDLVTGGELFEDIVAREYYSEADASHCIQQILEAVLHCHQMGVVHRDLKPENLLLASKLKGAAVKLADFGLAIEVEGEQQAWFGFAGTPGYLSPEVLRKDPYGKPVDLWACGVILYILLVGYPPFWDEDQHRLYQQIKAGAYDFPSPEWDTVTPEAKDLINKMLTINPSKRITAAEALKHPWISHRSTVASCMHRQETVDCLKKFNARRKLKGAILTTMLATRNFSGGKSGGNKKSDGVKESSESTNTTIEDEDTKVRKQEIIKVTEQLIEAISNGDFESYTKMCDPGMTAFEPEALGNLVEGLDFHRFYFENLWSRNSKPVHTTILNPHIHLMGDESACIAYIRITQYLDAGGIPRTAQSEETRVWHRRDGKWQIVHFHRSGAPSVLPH
# Description: as §1
# [15] = biological target: 476 purified kinases (Homo sapiens, UniProt Q13555)
# Sequence of 476 purified kinases (Homo sapiens, UniProt Q13555) (Q13555 whole entry): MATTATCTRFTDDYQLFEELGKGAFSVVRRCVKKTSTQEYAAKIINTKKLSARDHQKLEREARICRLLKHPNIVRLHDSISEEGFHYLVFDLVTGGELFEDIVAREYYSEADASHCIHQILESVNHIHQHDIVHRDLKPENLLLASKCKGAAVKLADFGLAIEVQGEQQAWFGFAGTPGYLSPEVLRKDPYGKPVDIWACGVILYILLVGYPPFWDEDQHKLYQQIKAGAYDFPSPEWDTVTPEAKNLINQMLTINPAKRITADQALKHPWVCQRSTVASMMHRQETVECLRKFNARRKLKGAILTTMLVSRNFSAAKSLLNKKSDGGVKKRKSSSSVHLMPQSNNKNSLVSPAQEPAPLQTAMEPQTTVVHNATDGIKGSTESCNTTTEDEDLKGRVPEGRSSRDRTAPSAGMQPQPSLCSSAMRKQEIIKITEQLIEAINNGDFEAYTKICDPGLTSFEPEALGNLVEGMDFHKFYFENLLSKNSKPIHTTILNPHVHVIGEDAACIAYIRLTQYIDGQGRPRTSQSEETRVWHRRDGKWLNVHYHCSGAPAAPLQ
# Description: as §1
# [16] = biological target: 476 purified kinases (Homo sapiens, UniProt Q8N568); conditions: ZLYTE
# Description: as §1
# [17] = biological target: 476 purified kinases (Homo sapiens, UniProt Q9NRM7)
# Sequence of 476 purified kinases (Homo sapiens, UniProt Q9NRM7) (Q9NRM7 whole entry): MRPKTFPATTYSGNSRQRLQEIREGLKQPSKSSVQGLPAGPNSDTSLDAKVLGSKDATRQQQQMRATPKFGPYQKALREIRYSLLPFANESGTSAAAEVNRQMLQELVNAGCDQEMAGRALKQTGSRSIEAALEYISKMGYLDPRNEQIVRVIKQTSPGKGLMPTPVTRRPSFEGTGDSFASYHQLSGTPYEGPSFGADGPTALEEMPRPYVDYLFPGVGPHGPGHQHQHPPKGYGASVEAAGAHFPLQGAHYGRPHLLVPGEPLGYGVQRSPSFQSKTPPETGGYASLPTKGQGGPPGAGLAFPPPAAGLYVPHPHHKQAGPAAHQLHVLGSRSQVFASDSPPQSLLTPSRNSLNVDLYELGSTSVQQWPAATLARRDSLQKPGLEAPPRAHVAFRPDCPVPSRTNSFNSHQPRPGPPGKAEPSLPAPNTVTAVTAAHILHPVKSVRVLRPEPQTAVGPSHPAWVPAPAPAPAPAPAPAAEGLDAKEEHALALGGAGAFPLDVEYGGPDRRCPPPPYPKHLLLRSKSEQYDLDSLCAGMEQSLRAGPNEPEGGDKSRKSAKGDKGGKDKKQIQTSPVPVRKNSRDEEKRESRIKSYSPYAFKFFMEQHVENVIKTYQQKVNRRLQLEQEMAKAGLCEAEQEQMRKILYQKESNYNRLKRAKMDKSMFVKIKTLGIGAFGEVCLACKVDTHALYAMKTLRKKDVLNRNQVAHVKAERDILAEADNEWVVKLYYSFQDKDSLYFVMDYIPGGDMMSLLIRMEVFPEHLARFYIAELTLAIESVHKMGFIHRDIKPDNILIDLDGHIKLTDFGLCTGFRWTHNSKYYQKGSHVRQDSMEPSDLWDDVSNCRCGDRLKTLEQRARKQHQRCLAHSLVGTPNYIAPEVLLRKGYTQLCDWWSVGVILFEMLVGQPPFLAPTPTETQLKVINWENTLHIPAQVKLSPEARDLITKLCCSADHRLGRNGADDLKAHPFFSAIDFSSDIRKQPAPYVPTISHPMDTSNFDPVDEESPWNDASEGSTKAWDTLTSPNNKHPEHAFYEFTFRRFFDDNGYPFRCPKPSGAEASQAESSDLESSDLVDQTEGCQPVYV
# Description: as §1
# [18] = biological target: 476 purified kinases (Homo sapiens, UniProt Q96SB4); conditions: ZLYTE
# Description: as §1
# [19] = biological target: 476 purified kinases (Homo sapiens, UniProt Q99755)
# Description: as §1
# Sequence of 476 purified kinases (Homo sapiens, UniProt Q8TF76) (Q8TF76 whole entry): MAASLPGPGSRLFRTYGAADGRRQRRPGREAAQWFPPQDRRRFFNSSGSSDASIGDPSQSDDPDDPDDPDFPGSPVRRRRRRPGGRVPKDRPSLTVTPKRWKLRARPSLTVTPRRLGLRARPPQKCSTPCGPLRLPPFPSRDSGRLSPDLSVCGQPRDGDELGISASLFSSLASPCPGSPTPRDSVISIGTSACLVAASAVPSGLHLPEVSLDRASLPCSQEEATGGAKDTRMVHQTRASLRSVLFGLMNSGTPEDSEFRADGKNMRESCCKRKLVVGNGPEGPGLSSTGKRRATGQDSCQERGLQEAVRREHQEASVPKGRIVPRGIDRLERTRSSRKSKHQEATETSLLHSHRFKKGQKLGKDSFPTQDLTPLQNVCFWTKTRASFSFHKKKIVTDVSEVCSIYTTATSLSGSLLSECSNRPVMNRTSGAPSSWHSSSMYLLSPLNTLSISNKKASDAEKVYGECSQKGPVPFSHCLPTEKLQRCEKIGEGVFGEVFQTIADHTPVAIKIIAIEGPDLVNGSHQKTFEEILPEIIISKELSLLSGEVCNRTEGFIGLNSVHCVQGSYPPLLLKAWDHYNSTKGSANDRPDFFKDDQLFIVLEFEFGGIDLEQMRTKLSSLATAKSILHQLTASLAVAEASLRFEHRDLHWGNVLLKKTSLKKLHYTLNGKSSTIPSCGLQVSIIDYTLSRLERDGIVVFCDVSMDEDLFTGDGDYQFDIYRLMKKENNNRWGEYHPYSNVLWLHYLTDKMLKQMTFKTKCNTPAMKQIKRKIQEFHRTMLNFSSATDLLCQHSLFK
# Sequence of 476 purified kinases (Homo sapiens, UniProt Q9NY57) (Q9NY57 whole entry): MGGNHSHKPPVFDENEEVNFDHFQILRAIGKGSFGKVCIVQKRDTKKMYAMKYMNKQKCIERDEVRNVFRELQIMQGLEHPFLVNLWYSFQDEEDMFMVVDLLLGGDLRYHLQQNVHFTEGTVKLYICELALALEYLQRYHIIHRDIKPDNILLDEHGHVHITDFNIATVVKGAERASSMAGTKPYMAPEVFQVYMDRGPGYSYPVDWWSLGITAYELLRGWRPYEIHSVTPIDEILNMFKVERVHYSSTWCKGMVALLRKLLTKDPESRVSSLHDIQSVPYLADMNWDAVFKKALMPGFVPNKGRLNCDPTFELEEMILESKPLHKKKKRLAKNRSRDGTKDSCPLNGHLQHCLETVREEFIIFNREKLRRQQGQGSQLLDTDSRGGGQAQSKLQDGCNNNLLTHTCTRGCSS
smiles,measurement,setting,value
Cc1nc(Nc2ncc(C(=O)Nc3c(C)cccc3Cl)s2)cc(N2CCN(CCO)CC2)n1 [Dasatinib],STK32B (YANK2) (LanthaScreen Binding),[1]; 10 nM compound,-5
same,STK32B (YANK2) (LanthaScreen Binding),[1]; 10 nM compound + 10 µM FKBP12,-1
same,FYN (kinase profiling),[2]; 10 nM,100
same,FYN (kinase profiling),[2]; 10 nM + 10 µM FKBP12,101
same,GSG2 (Haspin) (kinase profiling),[3]; 10 nM,-6
same,GSG2 (Haspin) (kinase profiling),[3]; 10 nM + 10 µM FKBP12,0
same,MAP4K3 (GLK) (LanthaScreen Binding),[4]; 10 nM compound,1
same,MAP4K3 (GLK) (LanthaScreen Binding),[4]; 10 nM compound + 10 µM FKBP12,6
same,ACVR2B (LanthaScreen Binding),[5]; 10 nM compound,5
same,ACVR2B (LanthaScreen Binding),[5]; 10 nM compound + 10 µM FKBP12,12
same,STK39 (STLK3) (LanthaScreen Binding),[6]; 10 nM compound,4
same,STK39 (STLK3) (LanthaScreen Binding),[6]; 10 nM compound + 10 µM FKBP12,-5
same,PRKACA (PKA) (kinase profiling),[7]; 10 nM,1
same,PRKACA (PKA) (kinase profiling),[7]; 10 nM + 10 µM FKBP12,3
same,TGFBR2 (LanthaScreen Binding),[8]; 10 nM compound,-5
same,TGFBR2 (LanthaScreen Binding),[8]; 10 nM compound + 10 µM FKBP12,-5
same,CAMK2B (CaMKII beta) (kinase profiling),[9]; 10 nM,7
same,CAMK2B (CaMKII beta) (kinase profiling),[9]; 10 nM + 10 µM FKBP12,7
same,MINK1 (kinase profiling),[10]; 10 nM,10
same,MINK1 (kinase profiling),[10]; 10 nM + 10 µM FKBP12,10
same,CSNK1G2 (CK1 gamma 2) (kinase profiling),[11]; 10 nM,5
same,CSNK1G2 (CK1 gamma 2) (kinase profiling),[11]; 10 nM + 10 µM FKBP12,0
same,TLK1 (LanthaScreen Binding),[12]; 10 nM compound,-1
same,TLK1 (LanthaScreen Binding),[12]; 10 nM compound + 10 µM FKBP12,4
same,TLK2 (LanthaScreen Binding),[13]; 10 nM compound,-3
same,TLK2 (LanthaScreen Binding),[13]; 10 nM compound + 10 µM FKBP12,-3
same,CAMK2A (CaMKII alpha) (kinase profiling),[14]; 10 nM,5
same,CAMK2A (CaMKII alpha) (kinase profiling),[14]; 10 nM + 10 µM FKBP12,7
same,CAMK2G (CaMKII gamma) (LanthaScreen Binding),[15]; 10 nM compound,-2
same,CAMK2G (CaMKII gamma) (LanthaScreen Binding),[15]; 10 nM compound + 10 µM FKBP12,5
same,DCAMKL2 (DCK2) (kinase profiling),[16]; 10 nM,7
same,DCAMKL2 (DCK2) (kinase profiling),[16]; 10 nM + 10 µM FKBP12,12
same,LATS2 (LanthaScreen Binding),[17]; 10 nM compound,3
same,LATS2 (LanthaScreen Binding),[17]; 10 nM compound + 10 µM FKBP12,2
same,SRPK1 (kinase profiling),[18]; 10 nM,4
same,SRPK1 (kinase profiling),[18]; 10 nM + 10 µM FKBP12,3
same,PIP5K1A (Adapta),[19]; 10 nM compound,-11
same,PIP5K1A (Adapta),[19]; 10 nM compound + 10 µM FKBP12,-9
